{"source": "patent US20090181968A1", "about": "“Novel 3-Bicyclocarbonylaminopyridine-2-Carboxamides or 3-Bicyclocarbonylaminopyrazine-2-Carboxamides” (priority 2005, published 2009)", "key": {"human CB1 receptor [1]": {"target": "T1, human CB1 receptor (Homo sapiens, UniProt P21554)", "T1 construct": "purchased Perkin-Elmer", "T1 sequence (P21554 whole entry)": "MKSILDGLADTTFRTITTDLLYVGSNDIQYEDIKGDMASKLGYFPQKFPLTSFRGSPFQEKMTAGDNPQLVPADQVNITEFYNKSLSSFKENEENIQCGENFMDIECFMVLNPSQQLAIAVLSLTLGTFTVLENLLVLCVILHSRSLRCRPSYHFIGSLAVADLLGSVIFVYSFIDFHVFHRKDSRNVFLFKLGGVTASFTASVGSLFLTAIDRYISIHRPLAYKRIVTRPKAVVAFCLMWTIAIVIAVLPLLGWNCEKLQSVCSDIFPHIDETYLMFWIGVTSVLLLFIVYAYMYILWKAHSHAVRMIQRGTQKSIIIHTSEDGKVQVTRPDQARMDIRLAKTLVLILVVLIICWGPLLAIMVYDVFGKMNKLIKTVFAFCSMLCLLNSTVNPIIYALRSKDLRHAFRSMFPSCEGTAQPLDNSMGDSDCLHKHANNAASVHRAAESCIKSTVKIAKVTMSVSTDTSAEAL", "assay": "hCB1 receptor binding (3H-CP55,940 displacement)", "experimental": "hCB1 and hCB2 Receptor Binding\nMembranes are produced from either HEK 293S cells expressing the cloned human CB1 receptor (hCB1: clone #24) or Sf9 cells, using the baculovirus system, expressing the cloned human CB2 receptor (hCB2). The membranes are thawed at 37° C., passed 3 times through a 23-gauge blunt-end needle, diluted in the cannabinoid binding buffer (50 mM Tris, 2.5 mM EDTA, 5 mM MgCl2, and 0.5 mg/mL BSA fatty acid free, pH 7.4) and aliquots containing the appropriate amount of protein are distributed in 96-well plates. The IC50 of the compounds of the present invention at hCB1 and hCB2 are evaluated from 10-point dose-response curves done with ^3H-CP55,940 at 20000 to 25000 dpm per well (0.17-0.21 nM) in a final volume of 300 μl. The total and non-specific binding are determined in the absence and presence of 0.2 μM of HU210 respectively. The plates are vortexed and incubated for 60 minutes at room temperature, filtered through Unifilters GF/B (pre-soaked in 0.1% polyethyleneimine) with the Packard harvester using 3 mL of wash buffer (50 mM Tris, 5 mM MgCl2, 0.5 mg BSA pH 7.0). The filters are dried for 1 hour at 55° C. The radioactivity (cpm) is counted in a TopCount (Packard) after adding 65 μl/well of MS-20 scintillation liquid.\nBased on the above assays, the dissociation constant (Ki) for a particular compound of the present invention towards a particular receptor is determined using the following equation: […]\nwherein IC50 is the concentration of the compound of the present invention at which 50% displacement has been observed; [rad] is a standard or reference radioactive ligand concentration at that moment; Kd is the dissociation constant of the radioactive ligand towards the particular receptor."}, "human CB1 receptor [2]": {"target": "T1, human CB1 receptor", "assay": "hCB1 GTPγS binding", "assay_type": "biochemical", "details": "for Emax: read-out: Emax hCB1", "experimental": "Cloned human CB1 receptor from Perkin-Elmer (hCB1) are thawed at 37° C., passed 3 times through a 23-gauge blunt-end needle and diluted in the GTPγS binding buffer (50 mM Hepes, 20 mM NaOH, 100 mM NaCl, 1 mM EDTA, 5 mM MgCl2, pH 7.4, 0.1% BSA). […] The basal and maximal stimulated binding is determined in absence and presence of 10 μM Win 55,212-2. The membranes are pre-incubated for 5 minutes with 112.5 μM GDP prior to distribution in plates (30 μM GDP final). The plates are vortexed and incubated for 60 minutes at room temperature, filtered on Unifilters GF/B (pre-soaked in water) with the Packard harvester using 3 ml of wash buffer (50 mM Tris, 5 mM MgCl2, 50 mM NaCl, pH 7.0). The filters are dried for 1 hour at 55° C. The radioactivity (cpm) is counted in a TopCount (Packard) after adding 65 μl/well of MS-20 scintillation liquid."}}, "note": "Like-named read-outs stand apart in the source and are kept apart here.", "data": [{"smiles": "CN(C)C(=O)COc1ccc(NC(=O)c2ccc(Cn3ccnn3)c3ccccc23)c(C(=O)NCC2CCC2)n1", "note": "[Example 6, N-(cyclobutylmethyl)-6-[2-(dimethylamino)-2-oxoethoxy]-3-{[4-(1H-1,2,3-triazol-1-ylmethyl)-1-naphthoyl]amino}pyridine-2-carboxamide]", "values": [{"measurement": "Ki", "setting": "human CB1 receptor [1]", "result": 52, "unit": "nM"}, {"measurement": "EC50", "setting": "human CB1 receptor [2]", "result": 80, "unit": "nM"}, {"measurement": "Emax", "setting": "human CB1 receptor [2]", "result": 88, "unit": "%"}]}, {"smiles": "O=C(COc1ccc(NC(=O)c2ccc(Cn3ccnn3)c3ccccc23)c(C(=O)NCC2CCC2)n1)NCCO", "note": "[Example 7, N-(cyclobutylmethyl)-6-{2-[(2-hydroxyethyl)amino]-2-oxoethoxy}-3-{[4-(1H-1,2,3-triazol-1-ylmethyl)-1-naphthoyl]amino}pyridine-2-carboxamide]", "values": [{"measurement": "Ki", "setting": "human CB1 receptor [1]", "result": 59, "unit": "nM"}, {"measurement": "EC50", "setting": "human CB1 receptor [2]", "result": 120, "unit": "nM"}, {"measurement": "Emax", "setting": "human CB1 receptor [2]", "result": 110, "unit": "%"}]}, {"smiles": "O=C(NCC1CCC1)c1nc(OCc2ccccn2)ccc1NC(=O)c1ccc(Cn2ccnn2)c2ccccc12", "note": "[Example 14, N-(cyclobutylmethyl)-6-(pyridin-2-ylmethoxy)-3-{[4-(1H-1,2,3-triazol-1-ylmethyl)-1-naphthoyl]amino}pyridine-2-carboxamide]", "values": [{"measurement": "Ki", "setting": "human CB1 receptor [1]", "result": 3.2, "unit": "nM"}, {"measurement": "EC50", "setting": "human CB1 receptor [2]", "result": 7.3, "unit": "nM"}, {"measurement": "Emax", "setting": "human CB1 receptor [2]", "result": 110, "unit": "%"}]}, {"smiles": "COCc1cnnn1Cc1ccc(C(=O)Nc2cccnc2C(=O)NCC2CCC2)c2ccccc12", "note": "[Example 15, N-(cyclobutylmethyl)-3-[(4-{[5-(methoxymethyl)-1H-1,2,3-triazol-1-yl]methyl}-1-naphthoyl)amino]pyridine-2-carboxamide]", "values": [{"measurement": "Ki", "setting": "human CB1 receptor [1]", "result": 13, "unit": "nM"}, {"measurement": "EC50", "setting": "human CB1 receptor [2]", "result": 22, "unit": "nM"}, {"measurement": "Emax", "setting": "human CB1 receptor [2]", "result": 120, "unit": "%"}]}, {"smiles": "O=C(COc1ccc(NC(=O)c2ccc(Cn3ccnn3)c3ccccc23)c(C(=O)NCC2CCC2)n1)NCc1ccccc1", "note": "[Example 27, 6-(Benzylcarbamoyl-methoxy)-3-[(4-[1,2,3]triazol-1-ylmethyl-naphthalene-1-carbonyl)-amino]-pyridine-2-carboxylic Acid Cyclobutylmethyl-amide]", "values": [{"measurement": "Ki", "setting": "human CB1 receptor [1]", "result": 35, "unit": "nM"}, {"measurement": "EC50", "setting": "human CB1 receptor [2]", "result": 42, "unit": "nM"}, {"measurement": "Emax", "setting": "human CB1 receptor [2]", "result": 94, "unit": "%"}]}, {"smiles": "CC(C)OC(=O)COc1ccc(NC(=O)c2ccc(Cn3ccnn3)c3ccccc23)c(C(=O)NCC2CCC2)n1", "note": "[Example 29, {6-(Cyclobutylmethyl-carbamoyl)-5-[(4-[1,2,3]triazol-1-ylmethyl-naphthalene-1-carbonyl)-amino]-pyridin-2-yloxy}-acetic Acid Isopropyl Ester]", "values": [{"measurement": "Ki", "setting": "human CB1 receptor [1]", "result": 5.4, "unit": "nM"}, {"measurement": "EC50", "setting": "human CB1 receptor [2]", "result": 7.1, "unit": "nM"}, {"measurement": "Emax", "setting": "human CB1 receptor [2]", "result": 80, "unit": "%"}]}, {"smiles": "COCc1ccc(C(=O)Nc2ccc(OCCO)nc2C(=O)NCC2CCOCC2)c2ccccc12", "note": "[Example 35, 6-(2-Hydroxy-ethoxy)-3-[(4-methoxymethyl-naphthalene-1-carbonyl)-amino]-pyridine-2-carboxylic Acid (tetrahydro-pyran-4-ylmethyl)-amide]", "values": [{"measurement": "Ki", "setting": "human CB1 receptor [1]", "result": 53, "unit": "nM"}, {"measurement": "EC50", "setting": "human CB1 receptor [2]", "result": 99, "unit": "nM"}, {"measurement": "Emax", "setting": "human CB1 receptor [2]", "result": 93, "unit": "%"}]}, {"smiles": "O=C(NCC1CCOCC1)c1nc(OS(=O)(=O)CCC(F)(F)F)cnc1NC(=O)c1ccc(Cn2ccnn2)c2ccccc12", "note": "[Example 44, 6-[(Tetrahydro-2H-pyran-4-ylmethyl)carbamoyl]-5-{[4-(1H-1,2,3-triazol-1-ylmethyl)-1-naphthoyl]amino}pyrazin-2-yl 3,3,3-trifluoropropane-1-sulfonate]", "values": [{"measurement": "Ki", "setting": "human CB1 receptor [1]", "result": 270, "unit": "nM"}, {"measurement": "EC50", "setting": "human CB1 receptor [2]", "result": 240, "unit": "nM"}, {"measurement": "Emax", "setting": "human CB1 receptor [2]", "result": 140, "unit": "%"}]}, {"smiles": "O=C(NCC1CCC1)c1ncccc1NC(=O)c1ccc(Cn2cc(F)nn2)c2ccccc12", "note": "[Example 50, N-(Cyclobutylmethyl)-3-({4-[(4-fluoro-1H-1,2,3-triazol-1-yl)methyl]-1-naphthoyl}amino)pyridine-2-carboxamide]", "values": [{"measurement": "Ki", "setting": "human CB1 receptor [1]", "result": 51, "unit": "nM"}, {"measurement": "EC50", "setting": "human CB1 receptor [2]", "result": 46, "unit": "nM"}, {"measurement": "Emax", "setting": "human CB1 receptor [2]", "result": 48, "unit": "%"}]}, {"smiles": "O=C(NCC1CCOCC1)c1ncccc1NC(=O)c1csc2ccccc12", "note": "[Example 56, 3-[(1-benzothien-3-yl-carbonyl)amino]-N-(tetrahydro-2H-pyran-4-ylmethyl)pyridine-2-carboxamide]", "values": [{"measurement": "Ki", "setting": "human CB1 receptor [1]; membranes of HEK 293S cells expressing cloned human CB1 receptor, Ki=IC50/(1+[rad]/Kd), read-out: Ki hCB1", "result": 260, "unit": "nM"}, {"measurement": "EC50", "setting": "human CB1 receptor [2]; GTPγ35S binding, cloned human CB1 receptor membranes, read-out: EC50 hCB1", "result": 380, "unit": "nM"}, {"measurement": "Emax", "setting": "human CB1 receptor [2]", "result": 88, "unit": "%"}]}]}
